The supplement of paper PMC10627819

Columns and labels:
[1] = test system: S. aureus Newman; assay: Bliss interaction score (quartile over a dose matrix) (fitness difference); higher = more antagonism (negative = synergy)
How it was run: (§1)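 The Bliss score is observed minus expected fitness under the product model, reported as quartiles over technical, biological and donor/recipient replicates. Fitness is the OD595 at entry into stationary phase divided by the plate's robust no-drug mean and capped at 1. Single-drug fitness was inferred from combination data.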

[2] = test system: B. subtilis 168; assay: as above
How it was run: as §1

[3] = test system: S. aureus DSM 20231; assay: as above
How it was run: as §1

[4] = test system: S. pneumoniae D39V; assay: as above
How it was run: as §1

[5] = test system: S. aureus Newman; assay: fitness (endpoint OD595 vs no drug) (fraction); higher = more growth
How it was run: (§2)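 Fitness is computed from the optical density at which cultures reach stationary phase, divided by the robust mean of no-drug control wells. Any value above 1 is set to 1. Cultures started at OD595 0.01 in 384-well plates with TSB, LB Lennox or CY at 37 °C, and OD595 was read every 30 min for 14 h against a first-reading background.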

[6] = test system: B. subtilis 168; assay: as above
How it was run: as §2

[7] = test system: S. pneumoniae D39V; assay: as above
How it was run: as §2
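For Bliss interaction score (quartile over a dose matrix) in this document: first quartile when negative (synergy) and third quartile when positive (antagonism).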

CO/N=C(\C(=O)N[C@@H]1C(=O)N2C(C(=O)O)=C(COC(C)=O)CS[C@H]12)c1csc(N)n1 [Cefotaxime] + CN[C@@H]1[C@H](O[C@H]2[C@H](O[C@H]3[C@H](O)[C@@H](O)[C@H](N=C(N)N)[C@@H](O)[C@@H]3N=C(N)N)O[C@@H](C)[C@]2(O)C=O)O[C@@H](CO)[C@H](O)[C@H]1O [Streptomycin]
Details | Bliss interaction score
[1] | -0.0376
[2] | -0.105
[3] | -0.0464
[4] | 0.0714

fitness
Details | partner 1 µg/mL | partner 2 µg/mL | partner 4 µg/mL | partner 8 µg/mL
[5], first compound 0.078 µg/mL | 0.761 | 0.757 | 0.72 | –
[5], first compound 0.156 µg/mL | 0.589 | 0.589 | 0.474 | –
[5], first compound 0.312 µg/mL | 0.382 | 0.29 | 0.155 | –
[5], first compound 0.625 µg/mL | 0.114 | 0.0719 | 0.0326 | –
[5], first compound 1.25 µg/mL | 0.0262 | 0.0178 | 0.0244 | –
[5], first compound 2.5 µg/mL | 0.0379 | 0.0307 | 0.0187 | –
[6], first compound 0.5 µg/mL | – | 0.0795 | 0.043 | 0.0401
[6], first compound 1 µg/mL | – | 0.0611 | 0.0445 | 0.0309
[6], first compound 2 µg/mL | – | 0.061 | 0.048 | 0.0478
[7], first compound 0.0018 µg/mL | – | 0.966 | 0.996 | 0.964
[7], first compound 0.0035 µg/mL | – | 0.945 | 0.974 | 0.963
[7], first compound 0.007 µg/mL | – | 0.787 | 0.822 | 0.846

fitness, one replicate
Details | first compound 0.0018 µg/mL | first compound 0.0035 µg/mL | first compound 0.007 µg/mL | first compound 0.00775 µg/mL | first compound 0.0155 µg/mL | first compound 0.031 µg/mL
[6], partner 2 µg/mL | – | – | – | 0.784 | 0.492 | 0.414
[6], partner 4 µg/mL | – | – | – | 0.0757 | 0.0218 | 0.0306
[6], partner 8 µg/mL | – | – | – | 0.0214 | 0.0302 | 0.0308
[7], partner 16 µg/mL | 0.92 | 0.881 | 0.654 | – | – | –

CO/N=C(\C(=O)N[C@@H]1C(=O)N2C(C(=O)O)=C(COC(C)=O)CS[C@H]12)c1csc(N)n1 [Cefotaxime] + CC1=C(C(=O)O)N2C(=O)[C@@H](NC(=O)[C@H](N)c3ccccc3)[C@H]2SC1 [Cephalexin]
Details | Bliss interaction score
[1] | 0.09
[2] | 0.101
[3] | 0.0629
[4] | -0.0656

fitness, one replicate
Details | partner 0.125 µg/mL | partner 0.25 µg/mL | partner 0.5 µg/mL | partner 1 µg/mL
[5], first compound 0.039 µg/mL | – | 0.904 | 0.952 | ≥ 1
[5], first compound 0.312 µg/mL | – | 0.402 | 0.38 | 0.371
[6], first compound 0.00775 µg/mL | – | 0.868 | 0.903 | 0.851
[6], first compound 0.0155 µg/mL | – | 0.729 | 0.728 | 0.748
[6], first compound 0.031 µg/mL | – | 0.62 | 0.631 | 0.615
[7], first compound 0.0018 µg/mL | ≥ 1 | 0.959 | 1 | –
[7], first compound 0.0035 µg/mL | 0.953 | 0.967 | 0.977 | –
[7], first compound 0.007 µg/mL | 0.777 | 0.875 | 0.724 | –

Details | fitness
[5], first compound 0.078 µg/mL, partner 0.25 µg/mL | 0.751
[5], first compound 0.078 µg/mL, partner 0.5 µg/mL | 0.797
[5], first compound 0.078 µg/mL, partner 1 µg/mL | 0.817
[5], first compound 0.156 µg/mL, partner 0.25 µg/mL | 0.636
[5], first compound 0.156 µg/mL, partner 0.5 µg/mL | 0.631
[5], first compound 0.156 µg/mL, partner 1 µg/mL | 0.713
[5], first compound 0.625 µg/mL, partner 0.5 µg/mL | 0.248
[5], first compound 1.25 µg/mL, partner 0.25 µg/mL | 0.159
[5], first compound 1.25 µg/mL, partner 0.5 µg/mL | 0.111
[5], first compound 1.25 µg/mL, partner 1 µg/mL | 0.0956
[5], first compound 2.5 µg/mL, partner 0.25 µg/mL | 0.0395
[5], first compound 2.5 µg/mL, partner 0.5 µg/mL | 0.0255
[5], first compound 2.5 µg/mL, partner 1 µg/mL | 0.0566
[6], first compound 0.5 µg/mL, partner 0.125 µg/mL | 0.235
[6], first compound 0.5 µg/mL, partner 0.25 µg/mL | 0.221
[6], first compound 0.5 µg/mL, partner 0.5 µg/mL | 0.248
[6], first compound 1 µg/mL, partner 0.125 µg/mL | 0.152
[6], first compound 1 µg/mL, partner 0.25 µg/mL | 0.123
[6], first compound 1 µg/mL, partner 0.5 µg/mL | 0.148
[6], first compound 2 µg/mL, partner 0.125 µg/mL | 0.124
[6], first compound 2 µg/mL, partner 0.25 µg/mL | 0.125
[6], first compound 2 µg/mL, partner 0.5 µg/mL | 0.0819
[7], first compound 0.0018 µg/mL, partner 1 µg/mL | 0.815
[7], first compound 0.0018 µg/mL, partner 2 µg/mL | 0.242
[7], first compound 0.0018 µg/mL, partner 4 µg/mL | 0.0372
[7], first compound 0.0035 µg/mL, partner 1 µg/mL | 0.679
[7], first compound 0.0035 µg/mL, partner 2 µg/mL | 0.168
[7], first compound 0.0035 µg/mL, partner 4 µg/mL | 0.0436
[7], first compound 0.007 µg/mL, partner 2 µg/mL | 0.0426
[7], first compound 0.007 µg/mL, partner 4 µg/mL | 0.0416

O=C(O)c1cn(C2CC2)c2cc(N3CCNCC3)c(F)cc2c1=O [Ciprofloxacin] + CN[C@@H]1[C@H](O)[C@H](NC)[C@H]2O[C@@]3(O)C(=O)C[C@@H](C)O[C@H]3O[C@@H]2[C@H]1O [Spectinomycin]
Details | Bliss interaction score
[1] | -0.0629
[2] | 0.0965
[3] | 0.0785
[4] | -0.0847

fitness
Details | partner 2 µg/mL | partner 4 µg/mL | partner 8 µg/mL | partner 16 µg/mL
[5], first compound 0.0375 µg/mL | – | 0.643 | 0.666 | 0.622
[5], first compound 0.075 µg/mL | – | 0.627 | – | 0.615
[5], first compound 0.15 µg/mL | – | – | 0.0938 | 0.0557
[6], first compound 0.0098 µg/mL | 0.949 | 0.897 | 0.94 | –
[6], first compound 0.0195 µg/mL | 0.694 | 0.741 | 0.789 | –
[6], first compound 0.039 µg/mL | – | 0.257 | – | –
[7], first compound 0.125 µg/mL | – | 0.919 | 0.913 | 0.706
[7], first compound 0.25 µg/mL | – | 0.797 | 0.795 | –
[7], first compound 0.5 µg/mL | – | – | – | 0.446

fitness, one replicate
Details | first compound 0.078 µg/mL | first compound 0.156 µg/mL | first compound 0.25 µg/mL | first compound 0.312 µg/mL
[5], partner 16 µg/mL | 0.203 | 0.0195 | – | 0.0278
[5], partner 32 µg/mL | 0.116 | 0.0216 | – | 0.0094
[5], partner 64 µg/mL | 0.0489 | 0.0519 | – | 0.102
[7], partner 16 µg/mL | – | – | 0.48 | –

CO/N=C(\C(=O)N[C@@H]1C(=O)N2C(C(=O)O)=C(COC(C)=O)CS[C@H]12)c1csc(N)n1 [Cefotaxime] + CN(C)c1cc(NC(=O)CNC(C)(C)C)c(O)c2c1C[C@H]1C[C@H]3[C@H](N(C)C)C(O)=C(C(N)=O)C(=O)[C@@]3(O)C(O)=C1C2=O [Tigecycline]
Details | Bliss interaction score
[1] | -0.0426
[2] | 0.0544
[3] | 0.0485
[4] | -0.0363

fitness, one replicate
Details | partner 0.039 µg/mL | partner 0.078 µg/mL | partner 0.125 µg/mL | partner 0.156 µg/mL | partner 0.25 µg/mL | partner 0.5 µg/mL
[5], first compound 0.039 µg/mL | 0.709 | 0.781 | – | 0.776 | – | –
[5], first compound 0.625 µg/mL | 0.0125 | 0.0197 | – | 0.0212 | – | –
[5], first compound 1.25 µg/mL | 0.0613 | 0.0298 | – | 0.023 | – | –
[5], first compound 2.5 µg/mL | 0.0425 | 0.0445 | – | 0.0375 | – | –
[6], first compound 0.00775 µg/mL | 0.83 | 0.784 | – | 0.811 | – | –
[6], first compound 0.0155 µg/mL | 0.696 | 0.677 | – | 0.621 | – | –
[6], first compound 0.031 µg/mL | 0.476 | 0.528 | – | 0.589 | – | –
[6], first compound 0.0625 µg/mL | – | – | 0.623 | – | 0.513 | 0.573
[6], first compound 0.125 µg/mL | – | – | 0.457 | – | 0.4 | 0.406
[6], first compound 0.25 µg/mL | – | – | 0.307 | – | 0.237 | 0.252

Details | fitness
[5], first compound 0.078 µg/mL, partner 0.039 µg/mL | 0.706
[5], first compound 0.078 µg/mL, partner 0.078 µg/mL | 0.777
[5], first compound 0.078 µg/mL, partner 0.156 µg/mL | 0.767
[5], first compound 0.156 µg/mL, partner 0.039 µg/mL | 0.655
[5], first compound 0.156 µg/mL, partner 0.078 µg/mL | 0.701
[5], first compound 0.156 µg/mL, partner 0.156 µg/mL | 0.714
[5], first compound 0.312 µg/mL, partner 0.039 µg/mL | 0.427
[5], first compound 0.312 µg/mL, partner 0.078 µg/mL | 0.434
[5], first compound 0.312 µg/mL, partner 0.156 µg/mL | 0.422
[6], first compound 0.5 µg/mL, partner 0.039 µg/mL | 0.231
[6], first compound 0.5 µg/mL, partner 0.078 µg/mL | 0.198
[6], first compound 0.5 µg/mL, partner 0.156 µg/mL | 0.234
[6], first compound 1 µg/mL, partner 0.039 µg/mL | 0.0778
[6], first compound 1 µg/mL, partner 0.078 µg/mL | 0.092
[6], first compound 1 µg/mL, partner 0.156 µg/mL | 0.109
[6], first compound 2 µg/mL, partner 0.039 µg/mL | 0.0602
[6], first compound 2 µg/mL, partner 0.078 µg/mL | 0.0925
[6], first compound 2 µg/mL, partner 0.156 µg/mL | 0.101
[7], first compound 0.0018 µg/mL, partner 0.325 µg/mL | 0.978
[7], first compound 0.0018 µg/mL, partner 0.65 µg/mL | 0.936
[7], first compound 0.0018 µg/mL, partner 1.3 µg/mL | 0.993
[7], first compound 0.0018 µg/mL, partner 2.6 µg/mL | 0.92
[7], first compound 0.0035 µg/mL, partner 0.325 µg/mL | 0.957
[7], first compound 0.0035 µg/mL, partner 0.65 µg/mL | 0.903
[7], first compound 0.0035 µg/mL, partner 1.3 µg/mL | 0.954
[7], first compound 0.0035 µg/mL, partner 2.6 µg/mL | 0.88
[7], first compound 0.007 µg/mL, partner 0.325 µg/mL | 0.918
[7], first compound 0.007 µg/mL, partner 0.65 µg/mL | 0.849
[7], first compound 0.007 µg/mL, partner 1.3 µg/mL | 0.896
[7], first compound 0.007 µg/mL, partner 2.6 µg/mL | 0.774
